Assay results reported in US12318381B2, “Treatment for non-alcoholic fatty liver disease” (1GLOBE BIOMEDICAL CO., LTD., priority 2018, dated 2025).

Tested on: human HepG2 liver cells
Assay: Intracellular fat content in palmitoleic acid-treated HepG2 cells (AdipoRed/Hoechst 33258 double staining, fluorometry)
Type: cell-based
Details: for palmitoleic acid-induced increase of intracellular triglyceride content: HepG2, 0.8 mM palmitoleic acid in EMEM; for inhibitory effect on fat accumulation as compared to Compound 13-3: HepG2, 0.8 mM palmitoleic acid
Procedure: The effects on triglyceride accumulation from Compound 13-3-1, Compound 13-3-2, Compound 13-3-3, Compound 13-3-5, Compound 13-3-6, Compound 13-3-7, Compound 18-2, Compound 13-3-10 and Compound 13-3-11, as exemplary compounds of the invention, were tested. Human HepG2 liver cells were incubated with 0.8 mM palmitoleic acid in EMEM medium for 24 hours in the presence of 0.1 μM compounds of the invention or control vehicle, DMSO. Subsequently, the cells were washed with PBS and the intracellular fat content was measured by AdipoRed/Hoechst 33258 double staining, which was assessed by flourometry.
And the effects of Compound 001, Compound 004, Compound 006, Compound 013, Compound 132, Compound 133 and Compound 134, as further exemplary compounds of the invention, were also tested. Human HepG2 liver cells were incubated with 0.8 mM palmitoleic acid in EMEM medium for 48 hours in the presence of 0.1 μM compounds of the invention or control vehicle, DMSO. Subsequently, the cells were washed with PBS and the intracellular fat content was measured by AdipoRed/Hoechst 33258 double staining, which was assessed by flourometry.

[1] = 48 hours, 0.1 μM compound vs DMSO (FIG. 1C)
[2] = 24 hours, 0.1 μM compound vs DMSO (FIG. 1B)

| Structure (SMILES) | palmitoleic acid-induced increase of intracellular triglyceride content [1] | inhibitory effect on fat accumulation as compared to Compound 13-3 (48 hours, 0.1 μM (FIG. 1C)) | palmitoleic acid-induced increase of intracellular triglyceride content [2] | inhibitory effect on fat accumulation as compared to Compound 13-3 (24 hours, 0.1 μM (FIG. 1B)) |
| --- | --- | --- | --- | --- |
| [2H]C([2H])(NC(=O)c1c(C)[nH]c(/C=C2\C(=O)Nc3ccc(-c4csc(-c5ccccc5)n4)cc32)c1C)C([2H])([2H])N(CC)CC [Compound 001] | markedly suppressed | comparable or greater |  |  |
| [2H]C([2H])([2H])C([2H])([2H])N(C([2H])([2H])C([2H])([2H])[2H])C([2H])([2H])C([2H])([2H])NC(=O)c1c(C)[nH]c(/C=C2\C(=O)Nc3ccc(-c4csc(-c5ccccc5)n4)cc32)c1C [Compound 004] | markedly suppressed | comparable or greater |  |  |
| [2H]c1c([2H])c([2H])c(-c2nc(-c3ccc4c(c3)/C(=C/c3[nH]c(C)c(C(=O)NC([2H])([2H])C([2H])([2H])N(C([2H])([2H])C([2H])([2H])[2H])C([2H])([2H])C([2H])([2H])[2H])c3C)C(=O)N4)cs2)c([2H])c1[2H] [Compound 006] | markedly suppressed | comparable or greater |  |  |
| CCN(CC)CCNC(=O)c1c(C)[nH]c(/C=C2\C(=O)Nc3ccc(-c4csc(Nc5ccccc5)n4)cc32)c1C [Compound 13-3-1] |  |  | markedly suppressed | comparable or greater |
| CCN(CC)CCNC(=O)c1c(C)[nH]c(/C=C2\C(=O)Nc3ccc(-c4csc(N5CCCCC5)n4)cc32)c1C [Compound 13-3-2] |  |  | markedly suppressed | comparable or greater |
| CCN(CC)CCNC(=O)c1c(C)[nH]c(/C=C2\C(=O)Nc3ccc(C(=O)Nc4csc([N+](=O)[O-])n4)cc32)c1C [Compound 13-3-3] |  |  | markedly suppressed | comparable or greater |
| CCN(CC)CCNC(=O)c1c(C)[nH]c(/C=C2\C(=O)Nc3cccc(-c4cnc(OC)nc4)c32)c1C [Compound 13-3-5] |  |  | markedly suppressed | comparable or greater |
| CCN(CC)CCC(=O)N1CCN(c2ccc(/C=C3\C(=O)Nc4ccc(-c5csc(-c6ccccc6)n5)cc43)cc2)CC1 [Compound 13-3-6] |  |  | markedly suppressed | comparable or greater |
| CCN(CC)CCNC(=O)CCc1c(C)[nH]c(/C=C2\C(=O)Nc3ccc(-c4csc(-c5ccccc5)n4)cc32)c1C [Compound 13-3-7] |  |  | markedly suppressed | comparable or greater |
| CCN(CC)CCNC(=O)c1c(C)[nH]c(/C=C2\C(=O)Nc3cnc(-c4csc(-c5ccccc5)n4)cc32)c1C [Compound 13-3-10] |  |  | markedly suppressed | comparable or greater |
| CCN(CC)CCNC(=O)c1c(C)[nH]c(/C=C2\C(=O)Nc3ccc(C4CCN(c5ccccc5)CC4)cc32)c1C [Compound 13-3-11] |  |  | markedly suppressed | comparable or greater |
| [2H]c1c([2H])c([2H])c(-c2nc(-c3ccc4c(c3)/C(=C/c3[nH]c(C)c(C(=O)NC([2H])([2H])C([2H])([2H])N(CC)CC)c3C)C(=O)N4)cs2)c([2H])c1[2H] [Compound 013] | markedly suppressed | comparable or greater |  |  |
| Cc1[nH]c(/C=C2\C(=O)Nc3ccc(-c4csc(-c5cccnc5)n4)cc32)c(C)c1C(=O)N1CCN(C)CC1 [Compound 18-2] |  |  | markedly suppressed | comparable or greater |
| [2H]c1c([2H])c([2H])c(-c2nc(-c3ccc4c(c3)/C(=C/c3[nH]c(C)c(C(=O)NCCN(CC)CC)c3C)C(=O)N4)cs2)c([2H])c1[2H] [Compound 132] | markedly suppressed | comparable or greater |  |  |
| [2H]c1c([2H])c([2H])c(-c2nc(-c3ccc4c(c3)/C(=C/c3[nH]c(C)c(C(=O)NCCN(C([2H])([2H])C([2H])([2H])[2H])C([2H])([2H])C([2H])([2H])[2H])c3C)C(=O)N4)cs2)c([2H])c1[2H] [Compound 133] | markedly suppressed | comparable or greater |  |  |
| [2H]C([2H])([2H])C([2H])([2H])N(CCNC(=O)c1c(C)[nH]c(/C=C2\C(=O)Nc3ccc(-c4csc(-c5ccccc5)n4)cc32)c1C)C([2H])([2H])C([2H])([2H])[2H] [Compound 134] | markedly suppressed | comparable or greater |  |  |
